One assay concerns the target D(3) dopamine receptor (Homo sapiens, UniProt P35462).
Assay [1] deals with T1, Mu-type opioid receptor (Homo sapiens, UniProt P35372).
The target of assay [2] is T2, Alpha-2A adrenergic receptor (Homo sapiens, UniProt P08913).
T2 sequence (P08913 whole entry): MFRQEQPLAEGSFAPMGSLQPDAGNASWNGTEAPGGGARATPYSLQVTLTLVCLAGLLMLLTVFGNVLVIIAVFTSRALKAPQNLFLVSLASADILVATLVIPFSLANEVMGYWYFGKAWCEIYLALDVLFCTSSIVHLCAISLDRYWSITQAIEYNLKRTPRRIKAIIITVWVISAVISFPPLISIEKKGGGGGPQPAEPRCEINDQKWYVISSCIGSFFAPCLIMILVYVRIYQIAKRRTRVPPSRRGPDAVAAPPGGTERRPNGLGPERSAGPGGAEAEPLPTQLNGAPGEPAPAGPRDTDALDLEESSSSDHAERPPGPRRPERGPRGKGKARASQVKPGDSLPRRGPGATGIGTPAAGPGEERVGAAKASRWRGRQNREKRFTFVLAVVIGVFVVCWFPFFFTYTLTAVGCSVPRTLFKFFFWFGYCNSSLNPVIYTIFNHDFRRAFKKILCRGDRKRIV
The class given is functional, cell-based.

The target of another assay is T3, Progesterone receptor (Homo sapiens, UniProt P06401).
T3 sequence (P06401 whole entry): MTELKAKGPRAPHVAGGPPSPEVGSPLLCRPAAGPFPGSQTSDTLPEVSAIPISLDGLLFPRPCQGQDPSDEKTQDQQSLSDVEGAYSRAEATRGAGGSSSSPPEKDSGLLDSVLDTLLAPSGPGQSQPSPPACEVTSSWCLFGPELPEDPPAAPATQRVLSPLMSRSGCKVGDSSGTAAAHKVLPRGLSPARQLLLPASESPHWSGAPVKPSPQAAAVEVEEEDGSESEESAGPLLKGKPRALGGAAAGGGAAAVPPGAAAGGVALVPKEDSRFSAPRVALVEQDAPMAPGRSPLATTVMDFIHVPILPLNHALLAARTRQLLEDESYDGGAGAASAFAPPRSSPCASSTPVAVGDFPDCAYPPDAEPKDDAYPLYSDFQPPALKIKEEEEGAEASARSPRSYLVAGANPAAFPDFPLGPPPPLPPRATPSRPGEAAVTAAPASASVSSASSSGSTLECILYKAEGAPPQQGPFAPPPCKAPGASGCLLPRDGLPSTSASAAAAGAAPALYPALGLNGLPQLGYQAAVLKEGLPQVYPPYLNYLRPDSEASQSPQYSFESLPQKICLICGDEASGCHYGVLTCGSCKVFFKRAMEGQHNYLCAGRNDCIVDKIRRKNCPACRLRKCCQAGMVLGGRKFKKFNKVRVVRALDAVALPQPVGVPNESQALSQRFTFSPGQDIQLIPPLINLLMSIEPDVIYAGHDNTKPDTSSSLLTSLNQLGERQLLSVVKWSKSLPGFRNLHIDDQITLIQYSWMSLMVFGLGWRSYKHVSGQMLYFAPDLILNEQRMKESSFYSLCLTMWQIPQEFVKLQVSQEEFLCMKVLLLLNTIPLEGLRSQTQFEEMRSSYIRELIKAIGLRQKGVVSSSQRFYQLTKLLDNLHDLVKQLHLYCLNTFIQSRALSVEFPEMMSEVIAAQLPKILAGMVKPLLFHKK
It is filed as functional.

In assay [3] the target is T1, Mu-type opioid receptor. Put plainly: biochemical. It is filed as functional.
The target of the next assay is Adenosine receptor A2a (Homo sapiens, UniProt P29274).
Adenosine receptor A2a, sequence (P29274 whole entry): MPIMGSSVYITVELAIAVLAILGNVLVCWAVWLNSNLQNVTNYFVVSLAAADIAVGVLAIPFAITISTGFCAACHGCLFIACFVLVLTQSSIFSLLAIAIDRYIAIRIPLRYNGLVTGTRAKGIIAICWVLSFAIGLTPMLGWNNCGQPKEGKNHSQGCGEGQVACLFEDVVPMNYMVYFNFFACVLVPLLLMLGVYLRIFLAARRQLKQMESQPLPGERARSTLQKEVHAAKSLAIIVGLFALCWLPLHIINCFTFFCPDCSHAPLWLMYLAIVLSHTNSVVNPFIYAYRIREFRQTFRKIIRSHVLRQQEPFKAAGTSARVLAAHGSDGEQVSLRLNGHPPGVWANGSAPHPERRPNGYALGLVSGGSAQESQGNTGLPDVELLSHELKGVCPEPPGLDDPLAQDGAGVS
Assay [4] has as its target Gamma-aminobutyric acid receptor subunit alpha-1 (Rattus norvegicus, UniProt P62813).
Assay [5] concerns the target T4, 5-hydroxytryptamine receptor 1A (Homo sapiens, UniProt P08908).
T4 sequence (P08908 whole entry): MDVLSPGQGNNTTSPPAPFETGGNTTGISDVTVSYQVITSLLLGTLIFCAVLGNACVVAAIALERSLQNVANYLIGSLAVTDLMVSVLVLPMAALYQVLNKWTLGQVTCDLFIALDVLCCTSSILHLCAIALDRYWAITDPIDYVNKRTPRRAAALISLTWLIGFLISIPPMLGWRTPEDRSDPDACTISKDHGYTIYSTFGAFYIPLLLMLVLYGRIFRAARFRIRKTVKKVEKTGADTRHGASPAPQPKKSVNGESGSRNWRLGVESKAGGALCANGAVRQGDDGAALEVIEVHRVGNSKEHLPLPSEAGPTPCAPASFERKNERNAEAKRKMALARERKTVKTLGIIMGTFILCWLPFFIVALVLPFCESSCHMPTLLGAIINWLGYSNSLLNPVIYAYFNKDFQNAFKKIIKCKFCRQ
The class given is functional, cell-based.

In assay [6] the target is T2, Alpha-2A adrenergic receptor. The class given is functional, cell-based. This is another data set of the same source.

These results are taken from ChEMBL document CHEMBL5291721, “A preclinical secondary pharmacology resource illuminates target-adverse drug reaction associations of marketed drugs” (Nat Commun, 2023).
Also: assay procedure not described here.

T1 sequence (P35372 whole entry): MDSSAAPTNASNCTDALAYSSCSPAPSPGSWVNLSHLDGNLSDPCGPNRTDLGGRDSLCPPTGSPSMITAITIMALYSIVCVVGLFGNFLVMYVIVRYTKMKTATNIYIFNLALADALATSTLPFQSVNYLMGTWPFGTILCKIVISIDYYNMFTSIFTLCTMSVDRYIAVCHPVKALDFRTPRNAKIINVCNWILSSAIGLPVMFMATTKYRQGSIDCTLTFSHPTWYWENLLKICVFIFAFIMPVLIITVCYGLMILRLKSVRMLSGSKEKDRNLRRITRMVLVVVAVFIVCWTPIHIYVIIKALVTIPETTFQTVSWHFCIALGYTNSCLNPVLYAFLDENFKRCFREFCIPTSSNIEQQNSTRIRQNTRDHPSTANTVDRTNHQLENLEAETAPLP
Gamma-aminobutyric acid receptor subunit alpha-1, sequence (P62813 whole entry): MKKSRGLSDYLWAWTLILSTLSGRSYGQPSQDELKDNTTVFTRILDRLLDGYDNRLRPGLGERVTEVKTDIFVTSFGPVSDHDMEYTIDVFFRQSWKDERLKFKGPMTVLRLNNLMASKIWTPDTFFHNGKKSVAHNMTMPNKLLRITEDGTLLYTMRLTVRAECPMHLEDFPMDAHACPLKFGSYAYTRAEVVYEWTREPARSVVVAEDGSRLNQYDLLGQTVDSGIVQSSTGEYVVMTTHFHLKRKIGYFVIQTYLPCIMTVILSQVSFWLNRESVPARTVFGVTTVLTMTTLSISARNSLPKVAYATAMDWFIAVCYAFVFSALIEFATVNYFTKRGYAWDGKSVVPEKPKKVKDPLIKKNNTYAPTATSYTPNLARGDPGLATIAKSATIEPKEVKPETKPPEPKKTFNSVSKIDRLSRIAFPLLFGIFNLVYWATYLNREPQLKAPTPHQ
D(3) dopamine receptor, sequence (P35462 whole entry): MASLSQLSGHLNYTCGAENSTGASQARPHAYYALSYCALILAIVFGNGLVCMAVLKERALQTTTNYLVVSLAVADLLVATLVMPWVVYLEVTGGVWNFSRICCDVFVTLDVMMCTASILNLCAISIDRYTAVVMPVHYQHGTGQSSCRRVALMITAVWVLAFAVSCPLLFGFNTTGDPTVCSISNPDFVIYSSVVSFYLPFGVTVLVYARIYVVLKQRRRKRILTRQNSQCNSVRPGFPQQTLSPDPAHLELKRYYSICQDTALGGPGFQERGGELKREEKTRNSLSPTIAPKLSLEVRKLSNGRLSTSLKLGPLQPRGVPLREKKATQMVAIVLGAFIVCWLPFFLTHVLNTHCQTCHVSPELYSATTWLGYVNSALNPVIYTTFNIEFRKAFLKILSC

Consider `CN(C)c1ccc(C(=C2C=CC(=[N+](C)C)C=C2)c2ccc(N(C)C)cc2)cc1` [GENTIAN VIOLET], for which the figures for the AC50 at D(3) dopamine receptor and on Mu-type opioid receptor [1] were 1210 nM and 3.9 µM, respectively.
Regarding HYDROXOCOBALAMIN, the AC50 (in assay [2]; at Progesterone receptor; at Mu-type opioid receptor [3]; on Adenosine receptor A2a; in assay [4]; in [5]) was more than 30 µM throughout. Also, the AC50 in [6] is more than 30 µM.
